Reference: patent US20050089471A1, “Labeled ligands for lectin-like oxidized low-density lipoprotein receptor (LOX-1)” (priority 2003, published 2005)
Where no end group is shown, it is not given here. fluorescein = fluorescein (Fl)

System: human endothelial coronary artery cells (HCAECs) which are known in the literature to express LOX-1
Experiment: Fluorescent confocal imaging of labeled peptide bound to HCAECs
Format: cell-based
Conditions: HCAECs grown in glass slides, fluorescent confocal microscope, FIG. 2
Method: Images in the assay may be acquired using a laser confocal microscope or an Imager. For example, images of peptides bound to cells can be obtained using a laser confocal microscope as follows: HCAE cells can be grown on high quality borosilicate 8-chambered glass slides (Electron Microscopy Sciences, Fort Washington, Pa.). Then, about 10 μL of 1 mg/ml of an aqueous solution of a labeled peptide can be added to the cells and incubated for 1 hour. Subsequently, the cells preferably are washed with HBSS buffer three times. The cells then can be fixed with 4% formaldehyde solution over 10 minutes. After a final wash with buffer, the slide is imaged. Images preferably are acquired using an OLYMPUS laser scanning confocal microscope, model Fluoview 300, using Ar-ion laser (selecting 488 nm line) and a 510-nm long-pass filter. Images can be acquired using two channels: reflected light and fluorescent mode channel, or an overlay of both channels.
The experimental conditions for imaging the peptide-labeled HCAECs are described previously.

Fl-KKGG-FQTPPQL (fluorescein-KKGGFQTPPQL) [peptide FQTPPQL conjugated with fluorescein via KKGG linker]
binding to / localization on HCAECs (fluorescent image): shown to bind
